Laboratory results published in patent US9062078B2, “Substituted 7-azabicyles and their use as orexin receptor modulators” (priority 2013, dated 2015).
Read-outs that look alike come from different tables or passages of the source.

Assays:
rat orexin 1 receptor = rat orexin 1 receptor (Rattus norvegicus, UniProt P56718); test: Rat orexin 1 receptor radioligand binding (competitive, [3H]-SB674042, HEK293 cell preparations)
human orexin 1 receptor = human orexin 1 receptor (Homo sapiens (Human), UniProt O43613); test: Human orexin 1 receptor radioligand binding (competitive, [3H]-SB674042, CHO cell preparations)
Chain of human orexin 1 receptor (O43613 whole entry): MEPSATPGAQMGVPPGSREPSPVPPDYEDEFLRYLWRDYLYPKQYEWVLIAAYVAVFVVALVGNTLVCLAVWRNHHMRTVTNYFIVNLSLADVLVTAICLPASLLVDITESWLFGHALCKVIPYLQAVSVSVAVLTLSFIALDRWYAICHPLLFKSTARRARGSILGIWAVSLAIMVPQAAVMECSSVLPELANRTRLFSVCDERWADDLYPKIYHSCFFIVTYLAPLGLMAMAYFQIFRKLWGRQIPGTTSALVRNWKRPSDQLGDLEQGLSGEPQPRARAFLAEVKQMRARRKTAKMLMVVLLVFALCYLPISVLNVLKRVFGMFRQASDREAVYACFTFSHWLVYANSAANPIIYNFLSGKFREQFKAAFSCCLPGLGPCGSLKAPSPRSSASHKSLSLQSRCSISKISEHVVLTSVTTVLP

human orexin 2 receptor = human orexin 2 receptor (Homo sapiens (Human), UniProt O43614); test: Human orexin 2 receptor radioligand binding (competitive, [3H]-EMPA, HEK293 cell preparations)
Chain of human orexin 2 receptor (O43614 whole entry): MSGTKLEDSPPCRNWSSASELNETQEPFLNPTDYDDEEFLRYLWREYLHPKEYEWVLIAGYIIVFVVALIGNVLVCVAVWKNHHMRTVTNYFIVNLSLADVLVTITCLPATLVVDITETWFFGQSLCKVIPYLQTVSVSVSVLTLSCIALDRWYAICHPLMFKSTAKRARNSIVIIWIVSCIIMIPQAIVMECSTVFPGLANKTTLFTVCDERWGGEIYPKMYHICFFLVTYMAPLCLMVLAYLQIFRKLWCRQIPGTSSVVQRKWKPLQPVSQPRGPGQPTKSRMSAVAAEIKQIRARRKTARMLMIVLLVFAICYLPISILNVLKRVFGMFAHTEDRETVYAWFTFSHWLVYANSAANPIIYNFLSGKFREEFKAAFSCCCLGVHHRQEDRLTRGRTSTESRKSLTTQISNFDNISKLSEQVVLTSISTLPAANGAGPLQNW

[1] = human orexin 2 receptor, [3H]-EMPA competition binding, read-out: hOX2 Ki (nm)
[2] = rat orexin 1 receptor, [3H]-SB674042 competition binding, read-out: rOX1 Ki (nm)
[3] = human orexin 1 receptor, [3H]-SB674042 competition binding, read-out: hOX1 Ki (nm)

| Structure (SMILES) | Ki (human orexin 2 receptor; [1]) | Ki (human orexin 1 receptor; hOX1 Ki (nm)) | Ki (human orexin 1 receptor; [3]) | also measured |
| --- | --- | --- | --- | --- |
| O=C(c1cccc(F)c1-c1ncccn1)N1[C@@H]2CC[C@H]1[C@H](Nc1cnc(C(F)(F)F)cn1)C2 [Example 238, (3-fluoro-2-(pyrimidin-2-yl)phenyl)((1S,2R,4R)-2-((5-(trifluoromethyl)pyrazin-2-yl)amino)-7-azabicyclo[2.2.1]heptan-7-yl)methanone] |  |  |  | Ki (rat orexin 1 receptor; read-out: rOX1 Ki (nm)): 16 nM; Ki (human orexin 1 receptor; read-out: hOX1 Ki (nm)): 16 nM; Ki (human orexin 2 receptor; read-out: hOX2 Ki (nm)): 955 nM |
| Cc1cccc(C(=O)N2[C@@H]3CC[C@H]2[C@H](Nc2cnc(C(F)(F)F)cn2)C3)c1-c1cccnn1 [Example 263, (3-methyl-2-(pyridazin-3-yl)phenyl)((1S,2R,4R)-2-((5-(trifluoromethyl)pyrazin-2-yl)amino)-7-azabicyclo[2.2.1]heptan-7-yl)methanone] | 1100 nM |  |  | Ki (rat orexin 1 receptor; read-out: rOX1 Ki (nm)): 44 nM; Ki (human orexin 1 receptor; read-out: hOX1 Ki (nm)): 41 nM |
| Cc1ccc(-n2nccn2)c(C(=O)N2C3CCC2C(Nc2cnc(C(F)(F)F)cn2)C3)n1 (racemic) [Example 186, (±)-(6-methyl-3-(2H-1,2,3-triazol-2-yl)pyridin-2-yl)(2-(5-(trifluoromethyl)pyrazin-2-yl)amino)-7-azabicyclo[2.2.1]heptan-7-yl)methanone] |  | 164 nM |  | Ki (rat orexin 1 receptor; rOX1 Ki (nm)): 134 nM; Ki (human orexin 2 receptor; hOX2 Ki (nm)): 1200 nM |
| O=C(c1c(F)cccc1-n1nccn1)N1[C@@H]2CC[C@H]1[C@H](Nc1cnc(C(F)(F)F)cn1)C2 [Example 258, (2-fluoro-6-(2H-1,2,3-triazol-2-yl)phenyl)((1S,2R,4R)-2-((5-(trifluoromethyl)pyrazin-2-yl)amino)-7-azabicyclo[2.2.1]heptan-7-yl)methanone] | 690 nM |  |  | Ki (rat orexin 1 receptor; read-out: rOX1 Ki (nm)): 42 nM; Ki (human orexin 1 receptor; read-out: hOX1 Ki (nm)): 48 nM |
| Cc1ccc(-c2ncccn2)c(C(=O)N2C3CCC2C(COc2ccc(F)cn2)C3)c1 (racemic) [Example 33, (±)-(2-(((5-fluoropyridin-2-yl)oxy)methyl)-7-azabicyclo[2.2.1]heptan-7-yl)(5-methyl-2-(pyrimidin-2-yl)phenyl)methanone] | 39 nM |  | 9 nM | Ki (rat orexin 1 receptor; [2]): 15 nM |
| COc1ccc(C(=O)N2[C@@H]3CC[C@H]2[C@H](Nc2cnc(C(F)(F)F)cn2)C3)c(-c2ncccn2)c1 [Example 249, (4-methoxy-2-(pyrimidin-2-yl)phenyl)((1S,2R,4R)-2-((5-(trifluoromethyl)pyrazin-2-yl)amino)-7-azabicyclo[2.2.1]heptan-7-yl)methanone] | 5600 nM |  |  | Ki (rat orexin 1 receptor; read-out: rOX1 Ki (nm)): 57 nM; Ki (human orexin 1 receptor; read-out: hOX1 Ki (nm)): 54 nM |
| O=C(c1ccc(F)cc1-n1nccn1)N1C2CCC1C(COc1ccc(F)cn1)C2 (racemic) [Example 116, (±)-(4-fluoro-2-(2H-1,2,3-triazol-2-yl)phenyl)(2-(((5-fluoropyridin-2-yl)oxy)methyl)-7-azabicyclo[2.2.1]heptan-7-yl)methanone] | 315 nM |  | 250 nM | Ki (rat orexin 1 receptor; [2]): 142 nM |
| CCOc1ncc2ccccc2c1C(=O)N1C2CCC1C(COc1ccccn1)C2 (racemic) [Example 83, (±)-(3-ethoxyisoquinolin-4-yl)(2-((pyridin-2-yloxy)methyl)-7-azabicyclo[2.2.1]heptan-7-yl)methanone] |  | 12 nM |  | Ki (rat orexin 1 receptor; rOX1 Ki (nm)): 17 nM |
| Cc1ccc(-c2ncccn2)c(C(=O)N2C3CCC2C(Nc2ccc(C(F)(F)F)cn2)C3)n1 (racemic) [Example 195, (±)-(6-methyl-3-(pyrimidin-2-yl)pyridin-2-yl)(2-(5-(trifluoromethyl)pyridin-2-yl)amino)-7-azabicyclo[2.2.1]heptan-7-yl)methanone] |  | 37 nM |  | Ki (rat orexin 1 receptor; rOX1 Ki (nm)): 57 nM; Ki (human orexin 2 receptor; hOX2 Ki (nm)): 325 nM |
| CCOc1ncc2ccccc2c1C(=O)N1[C@@H]2CC[C@H]1[C@H](COc1ccccn1)C2 [Example 164, (3-ethoxyisoquinolin-4-yl)((1S,2R,4R)-2-((pyridin-2-yloxy)methyl)-7-azabicyclo[2.2.1]heptan-7-yl)methanone] |  |  |  | Ki (rat orexin 1 receptor; read-out: rOX1 Ki (nm)): 9 nM; Ki (human orexin 1 receptor; read-out: hOX1 Ki (nm)): 7 nM |
| Cc1noc(-c2ccccc2C(=O)N2C3CCC2C(COc2cccc(C(F)(F)F)n2)C3)n1 (racemic) [Example 145, (±)-(2-(3-methyl-1,2,4-oxadiazol-5-yl)phenyl)(2-(((6-(trifluoromethyl)pyridin-2-yl)oxy)methyl)-7-azabicyclo[2.2.1]heptan-7-yl)methanone] |  |  | 340 nM | Ki (human orexin 2 receptor; hOX2 Ki (nm)): 330 nM |
| Cc1ccc(-n2nccn2)c(C(=O)N2C3CCC2C(COc2ccc(C(F)(F)F)cn2)C3)c1 (racemic) [Example 14, (±)-(5-methyl-2-(2H-1,2,3-triazol-2-yl)phenyl)(2-(((5-(trifluoromethyl)pyridin-2-yl)oxy)methyl)-7-azabicyclo[2.2.1]heptan-7-yl)methanone] | 71 nM | 50 nM |  |  |
| O=C(c1cc(F)ccc1-n1nccn1)N1C2CCC1C(COc1ccc(F)cn1)C2 (racemic) [Example 30, (±)-(5-fluoro-2-(2H-1,2,3-triazol-2-yl)phenyl)(2-(((5-fluoropyridin-2-yl)oxy)methyl)-7-azabicyclo[2.2.1]heptan-7-yl)methanone] | 149 nM |  | 47 nM |  |
| O=C(c1ccccc1-c1cccs1)N1[C@@H]2CC[C@H]1[C@H](COc1ccc(F)cn1)C2 (single isomer, unassigned) [Example 12A, ((1S*,2R*,4R*)-2-(((5-fluoropyridin-2-yl)oxy)methyl)-7-azabicyclo[2.2.1]heptan-7-yl)(2-(thiophen-2-yl)phenyl)methanone] |  | 177 nM |  | Ki (human orexin 2 receptor; hOX2 Ki (nm)): 339 nM |
| Cc1ccc(-n2nccn2)c(C(=O)N2C3CCC2C(COc2cccc(C)n2)C3)c1 (racemic) [Example 18, (±)-(5-methyl-2-(2H-1,2,3-triazol-2-yl)phenyl)(2-(((6-methylpyridin-2-yl)oxy)methyl)-7-azabicyclo[2.2.1]heptan-7-yl)methanone] | 44 nM |  | 12 nM |  |
| O=C(c1ccccc1-n1nccn1)N1C2CCC1C(Nc1cnc(C(F)(F)F)cn1)C2 (single isomer, unassigned) [Example 183b] |  | 28 nM |  | Ki (human orexin 2 receptor; hOX2 Ki (nm)): 700 nM |
| Cc1ccnc(OCC2CC3CCC2N3C(=O)c2cc(C)ccc2-n2nccn2)c1 (racemic) [Example 17, (±)-(5-methyl-2-(2H-1,2,3-triazol-2-yl)phenyl)(2-(((4-methylpyridin-2-yl)oxy)methyl)-7-azabicyclo[2.2.1]heptan-7-yl)methanone] | 69 nM |  | 41 nM |  |
| Cc1ccc(-n2nccn2)c(C(=O)N2C3CCC2C(COc2nccc(C(F)(F)F)n2)C3)c1 (racemic) [Example 13, (±)-(5-methyl-2-(2H-1,2,3-triazol-2-yl)phenyl)(2-(((4-(trifluoromethyl)pyrimidin-2-yl)oxy)methyl)-7-azabicyclo[2.2.1]heptan-7-yl)methanone] | 109 nM | 118 nM |  |  |
| O=C(c1ccccc1-n1nccn1)N1C2CCC1C(Nc1cnc(C(F)(F)F)cn1)C2 (racemic) [Example 182, (±)-((2-(2H-1,2,3-triazol-2-yl)phenyl)(2-((5-(trifluoromethyl)pyrazin-2-yl)amino)-7-azabicyclo[2.2.1]heptan-7-yl)methanone] |  | 38 nM |  | Ki (human orexin 2 receptor; hOX2 Ki (nm)): 1100 nM |
| Cc1cc(C)nc(OCC2CC3CCC2N3C(=O)c2ccccc2-c2nc(C)no2)n1 (racemic) [Example 153, (±)-(2-(((4,6-dimethylpyrimidin-2-yl)oxy)methyl)-7-azabicyclo[2.2.1]heptan-7-yl)(2-(3-methyl-1,2,4-oxadiazol-5-yl)phenyl)methanone] | 440 nM |  | 1100 nM |  |
| Cc1cc(C)nc(NC2CC3CCC2N3C(=O)c2cc(F)ccc2-n2nccn2)n1 (racemic) [Example 197, (±)-(2-((4,6-dimethylpyrimidin-2-yl)amino)-7-azabicyclo[2.2.1]heptan-7-yl)(5-fluoro-2-(2H-1,2,3-triazol-2-yl)phenyl)methanone] |  | 9000 nM |  | Ki (human orexin 2 receptor; hOX2 Ki (nm)): 862 nM |
| O=C(c1cc(F)ccc1-n1nccn1)N1C2CCC1C(COc1cnc3ccccc3n1)C2 (racemic) [Example 166, (±)-(5-fluoro-2-(2H-1,2,3-triazol-2-yl)phenyl)(2-((quinoxalin-2-yloxy)methyl)-7-azabicyclo[2.2.1]heptan-7-yl)methanone] | 1140 nM |  | 106 nM |  |
| Cc1ccc(-n2nccn2)c(C(=O)N2C3CCC2C(COc2nc(C)cc(C)n2)C3)c1 (racemic) [Example 39, (±)-(2-(((4,6-dimethylpyrimidin-2-yl)oxy)methyl)-7-azabicyclo[2.2.1]heptan-7-yl)(5-methyl-2-(2H-1,2,3-triazol-2-yl)phenyl)methanone] | 27 nM | 29 nM |  |  |
| O=C(c1cccc(F)c1-n1nccn1)N1C2CCC1C(COc1cccc(C(F)(F)F)n1)C2 (racemic) [Example 146, (±)-(3-fluoro-2-(2H-1,2,3-triazol-2-yl)phenyl)(2-(((6-(trifluoromethyl)pyridin-2-yl)oxy)methyl)-7-azabicyclo[2.2.1]heptan-7-yl)methanone] | 196 nM |  | 180 nM |  |
| Cc1ccc(OCC2CC3CCC2N3C(=O)c2ccc(C)nc2-n2ccnn2)nc1 (racemic) [Example 136, (±)-(6-methyl-2-(1H-1,2,3-triazol-1-yl)pyridin-3-yl)(2-(((5-methylpyridin-2-yl)oxy)methyl)-7-azabicyclo[2.2.1]heptan-7-yl)methanone] | 1200 nM | 6800 nM |  |  |
| Cc1cc(C)nc(NC2CC3CCC2N3C(=O)c2ccc(F)cc2-n2nccn2)n1 (racemic) [Example 199, (±)-(2-((4,6-dimethylpyrimidin-2-yl)amino)-7-azabicyclo[2.2.1]heptan-7-yl)(4-fluoro-2-(2H-1,2,3-triazol-2-yl)phenyl)methanone] | 553 nM |  | 1630 nM |  |
| Cc1ccc(OCC2CC3CCC2N3C(=O)c2ccccc2-c2nc(C)no2)nc1 (racemic) [Example 137, (±)-(2-(3-methyl-1,2,4-oxadiazol-5-yl)phenyl)(2-(((5-methylpyridin-2-yl)oxy)methyl)-7-azabicyclo[2.2.1]heptan-7-yl)methanone] | 425 nM |  | 950 nM |  |
